Source: ChEMBL document CHEMBL5344429, “1,3-Substituted β-Carboline Derivatives as Potent Chemotherapy for the Treatment of Cystic Echinococcosis” (J Med Chem, 2023)
Activity calls are given as the source filed them. No cut-off for these calls is given here.

Experiments:
Echinococcus granulosus [1] = assay: Parasiticidal activity against Echinococcus granulosus protoscolices assessed as death rate at 1 uM incubated for 48 hrs by eosin exclusion test; assay type: functional
Echinococcus granulosus [2] = assay: Parasiticidal activity against Echinococcus granulosus protoscolices […] by eosin exclusion test; assay type: functional; conditions: 1152 h, time 48 day
Echinococcus granulosus [3] = assay: Inhibition of Echinococcus granulosus; assay type: functional
Echinococcus granulosus [4] = assay: Parasiticidal activity against Echinococcus granulosus microcyst infected in kunming mouse assessed as mean cyst weight at 25 mg/kg, ip administered for 28 days; assay type: functional; conditions: time 28 day
Echinococcus granulosus [5] = assay: Parasiticidal activity against Echinococcus granulosus microcyst infected in kunming mouse assessed as reduction in cyst weight at 50 mg/kg, ip administered for 14 days relative to control; assay type: functional; parameters: scale not given: the % may be the effect or the level left; conditions: time 14 day
Echinococcus granulosus [6] = assay: Parasiticidal activity against Echinococcus granulosus protoscolices assessed as outer skin and hooks fall off at 5 uM incubated for 2 days by scanning electron microscopy; assay type: functional, organism-based; conditions: time 2.0 day
Echinococcus granulosus [7] = assay: Parasiticidal activity against Echinococcus granulosus microcyst infected in kunming mouse assessed as mean cyst weight at 50 mg/kg, ip administered for 14 days; assay type: functional; conditions: time 14 day
Echinococcus granulosus [8] = assay: Parasiticidal activity against Echinococcus granulosus protoscolices assessed as appearance of relative completion of sucker at 5 uM incubated for 2 days by scanning electron microscopy; assay type: functional, organism-based; conditions: time 2.0 day
Echinococcus granulosus [9] = assay: Parasiticidal activity against Echinococcus granulosus microcyst infected in kunming mouse assessed as reduction in cyst weight at 25 mg/kg, ip administered for 28 days relative to control; assay type: functional; parameters: scale not given: the % may be the effect or the level left; conditions: time 28 day
Echinococcus granulosus [10] = assay: Parasiticidal activity against Echinococcus granulosus microcyst infected in kunming mouse assessed as mean cyst weight at 25 mg/kg, ip administered for 14 days; assay type: functional; conditions: time 14 day
Echinococcus granulosus [11] = assay: Parasiticidal activity against Echinococcus granulosus microcyst infected in kunming mouse assessed as reduction in cyst weight at 12.5 mg/kg, ip administered for 28 days relative to control; assay type: functional; parameters: scale not given: the % may be the effect or the level left; conditions: time 28 day
Echinococcus granulosus [12] = assay: Parasiticidal activity against Echinococcus granulosus protoscolices assessed as survival rate at 1 uM incubated for 48 hrs by eosin exclusion test; assay type: functional
Echinococcus granulosus [13] = assay: Parasiticidal activity against Echinococcus granulosus microcyst infected in kunming mouse assessed as mean cyst weight at 12.5 mg/kg, ip administered for 28 days; assay type: functional; conditions: time 28 day
Echinococcus granulosus [14] = assay: Parasiticidal activity against Echinococcus granulosus protoscolices assessed as body shrank with irregular edge at 5 uM incubated for 4 days by H and E staining based assay; assay type: functional, organism-based; conditions: time 4.0 day
Echinococcus granulosus [15] = assay: Parasiticidal activity against Echinococcus granulosus microcyst infected in kunming mouse assessed as reduction in cyst weight at 50 mg/kg, ip administered for 28 days relative to control; assay type: functional; parameters: scale not given: the % may be the effect or the level left; conditions: time 28 day
Echinococcus granulosus [16] = assay: Parasiticidal activity against Echinococcus granulosus microcyst infected in kunming mouse assessed as reduction in cyst weight at 25 mg/kg, ip administered for 14 days relative to control; assay type: functional; parameters: scale not given: the % may be the effect or the level left; conditions: time 14 day
Echinococcus granulosus [17] = assay: Parasiticidal activity against Echinococcus granulosus assessed as cyst destruction at 100 uM incubated for 4 days by scanning electron microscopy; assay type: functional, organism-based; conditions: time 4.0 day
Echinococcus granulosus [18] = assay: Parasiticidal activity against Echinococcus granulosus microcyst infected in kunming mouse assessed as reduction in cyst weight at 12.5 mg/kg, ip administered for 14 days relative to control; assay type: functional; parameters: scale not given: the % may be the effect or the level left; conditions: time 14 day
Echinococcus granulosus [19] = assay: Parasiticidal activity against Echinococcus granulosus protoscolices assessed as appearance of partial shedding at 5 uM incubated for 4 days by H and E staining based assay; assay type: functional, organism-based; conditions: time 4.0 day
Echinococcus granulosus [20] = assay: Parasiticidal activity against intraperitoneal cystic Echinococcus granulosus infected in Kunming mouse assessed as reduction in cell count with clear nucleolus at 50 mg/kg, ip administered for 28 days by TEM analysis; assay type: functional, organism-based; conditions: time 28.0 day
Echinococcus granulosus [21] = assay: Parasiticidal activity against intraperitoneal cystic Echinococcus granulosus infected in Kunming mouse assessed as appearance of unclear cortex at 50 mg/kg, ip administered for 28 days by TEM analysis; assay type: functional, organism-based; conditions: time 28.0 day
Echinococcus granulosus [22] = assay: Parasiticidal activity against Echinococcus granulosus microcyst infected in kunming mouse assessed as mean cyst weight at 50 mg/kg, ip administered for 28 days; assay type: functional; conditions: time 28 day
Echinococcus granulosus [23] = assay: Parasiticidal activity against intraperitoneal cystic Echinococcus granulosus infected in Kunming mouse assessed as decrease number of microvilli at 50 mg/kg, ip administered for 28 days by TEM analysis; assay type: functional, organism-based; conditions: time 28.0 day
Echinococcus granulosus [24] = assay: Parasiticidal activity against Echinococcus granulosus microcyst infected in kunming mouse assessed as mean cyst weight at 12.5 mg/kg, ip administered for 14 days; assay type: functional; conditions: time 14 day
Echinococcus granulosus [25] = assay: Induction of autophagy in Echinococcus granulosus protoscolices assessed as decrease in p62 expression level at 5 uM measured after 4 days by Western blot analysis; assay type: functional, organism-based; conditions: time 4.0 day
Echinococcus granulosus [26] = assay: Induction of autophagy in Echinococcus granulosus protoscolices assessed as increase in ATG5 expression level at 5 uM measured after 4 days by Western blot analysis; assay type: functional, organism-based; conditions: time 4.0 day
[27] = Neurotoxicity in Kunming mouse assessed as increased postsynaptic density in hippocampal at 50 mg/kg, ip administered for 28 days by TEM analysis; assay type: toxicity, organism-based; conditions: in vivo, 672 h, time 28 day
[28] = Neurotoxicity in Kunming mouse assessed as deformed pyramidal cells in brain at 50 mg/kg, ip administered for 28 days by H and E staining based assay; assay type: toxicity, organism-based; conditions: in vivo, 672 h, time 28 day
[29] = Neurotoxicity in Kunming mouse assessed as loosely arranged pyramidal cells in brain at 50 mg/kg, ip administered for 28 days by H and E staining based assay; assay type: toxicity, organism-based; conditions: in vivo, 672 h, time 28 day
[30] = Neurotoxicity in Kunming mouse assessed as swollen pyramidal cells in brain at 50 mg/kg, ip administered for 28 days by H and E staining based assay; assay type: toxicity, organism-based; conditions: in vivo, 672 h, time 28 day
[31] = Neurotoxicity in Kunming mouse assessed as partial cristae in hippocampal at 50 mg/kg, ip administered for 28 days by TEM analysis; assay type: toxicity, organism-based; conditions: in vivo, 672 h, time 28 day
[32] = Neurotoxicity in Kunming mouse assessed as blurred synaptic space in hippocampal at 50 mg/kg, ip administered for 28 days by TEM analysis; assay type: toxicity, organism-based; conditions: in vivo, 672 h, time 28 day
[33] = Neurotoxicity in Kunming mouse assessed as widened perinuclear space in hippocampal neurons at 50 mg/kg, ip administered for 28 days by TEM analysis; assay type: toxicity, organism-based; conditions: in vivo, 672 h, time 28 day
[34] = Neurotoxicity in Kunming mouse assessed as incomplete mitochondrial membrane in hippocampal at 50 mg/kg, ip administered for 28 days by TEM analysis; assay type: toxicity, organism-based; conditions: in vivo, 672 h, time 28 day
Echinococcus granulosus [35] = assay: Induction of autophagy in Echinococcus granulosus protoscolices assessed as increase in Beclin1 expression level at 5 uM measured after 4 days by Western blot analysis; assay type: functional, organism-based; conditions: time 4.0 day

## COc1ccc(-c2nc(C(=O)Nc3ccc(CN4CCC(N5CCCCC5)CC4)cc3)cc3c2[nH]c2ccccc23)cc1OC
Echinococcus granulosus [1]
  Activity: Active
Echinococcus granulosus [2]
  LC50: 6.49 µM

## COc1ccc(-c2nc(NC(=O)c3ccc(CN4CCCN(C)CC4)cc3)cc3c2[nH]c2ccccc23)cc1OC
Echinococcus granulosus [1]
  Activity: Active
Echinococcus granulosus [2]
  LC50: 13.2 µM

## CCCCn1c2ccccc2c2ccnc(-c3ccc(OC)cc3)c21
Echinococcus granulosus [3]
  LC50: 47.8 µM

## CCCSc1ccc2[nH]c(NC(=O)OC)nc2c1 [ALBENDAZOLE]
Echinococcus granulosus [4]
  Activity: 25.3 mg
Echinococcus granulosus [5]
  Activity: 54.7%
Echinococcus granulosus [6]
  Activity: Active
Echinococcus granulosus [7]
  Activity: 23.3 mg
Echinococcus granulosus [8]
  Activity: Active
Echinococcus granulosus [9]
  Activity: 53.45%
Echinococcus granulosus [10]
  Activity: 26.2 mg
Echinococcus granulosus [11]
  Activity: 50.9%
Echinococcus granulosus [12]
  Activity: 100%
Echinococcus granulosus [13]
  Activity: 26.7 mg
Echinococcus granulosus [14]
  Activity: Active
Echinococcus granulosus [15]
  Activity: 55.4%
Echinococcus granulosus [16]
  Activity: 49.16%
Echinococcus granulosus [17]
  Activity: inactive
Echinococcus granulosus [2]
  LC50: 154 µM
Echinococcus granulosus [18]
  Activity: 42.77%
Echinococcus granulosus [19]
  Activity: Active
Echinococcus granulosus [20]
  Activity: Active
Echinococcus granulosus [21]
  Activity: Active
Echinococcus granulosus [22]
  Activity: 24.2 mg
Echinococcus granulosus [23]
  Activity: Active
Echinococcus granulosus [24]
  Activity: 29.5 mg

## COc1ccc2c(c1)[nH]c1c(C)nccc12 [HARMINE]
Echinococcus granulosus [25]
  Activity: Active
Echinococcus granulosus [4]
  Activity: 24.8 mg
Echinococcus granulosus [5]
  Activity: 55.97%
Echinococcus granulosus [6]
  Activity: Active
Echinococcus granulosus [7]
  Activity: 22.7 mg
Echinococcus granulosus [8]
  Activity: Active
Echinococcus granulosus [9]
  Activity: 54.4%
Echinococcus granulosus [10]
  Activity: 25.1 mg
Echinococcus granulosus [11]
  Activity: 67.17%
Echinococcus granulosus [12]
  Activity: 100%
Echinococcus granulosus [13]
  Activity: 26.6 mg
Echinococcus granulosus [26]
  Activity: Active
[27]
  Activity: Toxic
[28]
  Activity: Toxic
Echinococcus granulosus [14]
  Activity: Active
[29]
  Activity: Toxic
Echinococcus granulosus [15]
  Activity: 56.93%
[30]
  Activity: Toxic
[31]
  Activity: Toxic
Echinococcus granulosus [16]
  Activity: 51.2%
Echinococcus granulosus [17]
  Activity: inactive
Echinococcus granulosus [2]
  LC50: 135 µM
Echinococcus granulosus [18]
  Activity: 46.13%
Echinococcus granulosus [19]
  Activity: Active
[32]
  Activity: Toxic
Echinococcus granulosus [20]
  Activity: Active
Echinococcus granulosus [21]
  Activity: Active
[33]
  Activity: Toxic
[34]
  Activity: Toxic
Echinococcus granulosus [22]
  Activity: 23.4 mg
Echinococcus granulosus [23]
  Activity: Active
Echinococcus granulosus [24]
  Activity: 27.8 mg
Echinococcus granulosus [35]
  Activity: Active

## COc1cccc(-c2nc(C(=O)Nc3ccc(CN4CCC(N5CCCCC5)CC4)cc3)cc3c2[nH]c2ccccc23)c1
Echinococcus granulosus [1]
  Activity: Active
Echinococcus granulosus [2]
  LC50: 18.1 µM

## COc1ccc(-c2nc(C(=O)Nc3ccc(CN4CCC(N5CCCCC5)CC4)cc3)cc3c2[nH]c2ccccc23)cc1
Echinococcus granulosus [1]
  Activity: Active
Echinococcus granulosus [2]
  LC50: 7.67 µM

## Cc1ccc(-c2nc(NC(=O)c3ccc(CN4CCC(N5CCCCC5)CC4)cc3)cc3c2[nH]c2ccccc23)cc1
Echinococcus granulosus [1]
  Activity: Active
Echinococcus granulosus [2]
  LC50: 12.5 µM
